Measured values published in patent US20240124539A1, “CROSSLINKED HELIX DIMER MIMICS OF SOS AND METHODS OF USING SAME” (NEW YORK UNIVERSITY, priority 2020, published 2024).
Positions of bridges follow the written chain, without caps; N, C: chain ends. Non-standard residues stand in square brackets, D forms with d. Residues, ends and D or L forms follow the SMILES beside them. Chains are numbered I, II in the order given. No end group written: not given here. dibenzylether crosslinker = scaffold alkylating both cysteine thiols (drawn in Scheme 1 and; hArg = N=C(N)NCCCC[C@H](N)C(=O)O; DZ = diazirine photocrosslinker

Legend:
[1] = target: T1, wild-type His6-tagged H-Ras (1-166) pre-loaded with GDP (Homo sapiens, UniProt P01112); test: Fluorescence polarization binding assay, wild-type H-Ras-GDP
T1 construct: wild-type and mutant His6-tagged H-Ras (1-166) pre-loaded with GDP; made in house; host or cells: Escherichia coli (BL21)
Excerpt: GTP of the Ras-specific nucleotide exchange factor SOS. Cell 112, 685-695 (2003).

[2] = test system: H358 cells; test: Photoaffinity labeling with quantitative MS-based proteomics in H358 cells; assay type: cell-based, Homo sapiens; conditions: TMT abundance, negative control diazirine probe
Protocol: H358 cells were grown to 80-95% confluence in 10 cm plates with FBS-supplemented RPMI-1640. The growth medium was aspirated and the cells were washed with Dulbecco's phosphate-buffered saline (DPBS). The cells were then incubated with serum-free medium containing probes DZ2-CHC^Sos-5 (20 μM in RPMI-1640 with 0.4% DMSO, two replicates) or control probe CP-2-66 (20 μM in RPMI-1640 with 0.4% DMSO, four replicates) for 4 hours at 37° C. under an atmosphere of 5% CO2 before being irradiated under UV light (365 nm, 30 min, 4° C.). The cells were washed with DPBS, scraped and transferred to 1.5 mL Eppendorf tubes, pelleted, and stored at −80° C. until the next step.
Cell pellets were resuspended in 500 μL of DPBS and lysed by sonication (15 ms on, 40 ms off, 15% amplitude, 1 s total on×2). Protein concentrations were normalized (1-2 mg/mL; final volume of 500 μL with DPBS) using the Lowry Protein Assay (Pierce). To each sample was added solutions of tris((1-benzyl-4-triazolyl)methyl)amine (30 μl, 1.7 mM in DMSO/t-BuOH 1:4 v/v), tris(2-carboxyethyl)phosphine (10 μL, 50 mM), biotin-PEG3-azide (5 μL, 100 μM), and CuSO4 (10 μL, 50 mM) and the samples were shaken at room temperature for 1 hour. A cold MeOH/CHCI3 mixture (2.5 mL, 4:1 v/v) was added to each lysate, followed by 1 mL of cold DPBS. The resulting mixture was vortexed and centrifuged (4,700× g, 10 min, 4° C.). The organic and aqueous layers were aspirated, and the remaining protein disk was further washed via sonication in cold MeOH/CHCl3 solution (2 mL, 4:1) and pelleted by centrifugation (4,700× g, 10 min, 4° C.). The protein pellet was aspirated and combined with freshly prepared urea solution (500 μL, 6 M in DPBS) and a solution of SDS (with 10 μL of 10% w/v) by sonication. A freshly prepared 1:1 solution (50 μL) of TCEP (200 mM in DPBS) and K2CO3 (600 mM in DPBS) was added and the mixture was incubated for 30 min at 37° C. with shaking. A solution of freshly prepared iodoacetamide (70 μL, 400 mM in DPBS) was added and the mixture was incubated at RT in the absence of light. Each sample was combined with a solution of SDS (130 μL, 10% in DPBS w/v) followed by DPBS (5.5 mL) and incubated with pre-equilibrated streptavidin-agarose beads (100 μL of a 50% slurry; Pierce) for 1.5 hours at RT while rotating. The streptavidin beads were pelleted by centrifugation (750 g, 2 min, 4° C.) and sequentially washed with SDS solution (1×5 mL, 0.2% in DPBS), DPBS (2×5 mL), and triethylammonium bicarbonate buffer (1×5 mL, TEAB, 100 mM, pH 8.4). The beads were resuspended in TEAB (0.5 mL, 100 mM pH 8.5) and transferred into LoBind microcentrifuge tubes. The tube was washed once more with TEAB (0.5 mL, 100 mM pH 8.5) to ensure complete transfer of the beads, which were then pelleted by centrifugation (750× g, 2 min, 4° C. and the supernatant aspirated. Each sample of beads was combined with a solution of CaCl2 (2 μL, 100 mM) and a solution of sequencing-grade porcine trypsin (2 μg, Promega in 200 μL TEAB, 100 mM, pH 8.4), and incubated for 14 hours at 37° C.with shaking. The beads were pelleted by centrifugation (750× g, 2 min, 4° C.) and the supernatants were transferred to new
LoBind micro-centrifuge tubes. Each digested sample was TMT 10plex labeled (Thermo Fisher Scientific): for each sample a stock solution of TMT reagent (8 μL, 20 μg/μL) was added along with dry MS-grade acetonitrile (final acetonitrile concentration 30% v/v), followed by incubation at RT for 1 hour. The reaction was quenched by adding hydroxylamine (6 μL) and left to stand for 15 min, followed by the addition of formic acid (5 μL). Each TMT-labeled sample was dried via vacuum centrifugation, and the samples were combined by redissolving one sample in a solution of trifluoroacetic acid (TFA, 200 μL, 0.1% in water) and transferring the solution into each sample tube until all samples were redissolved. […]

[3] = target: T2, H-Ras (Homo sapiens, UniProt P01112); test: Photoaffinity labeling of purified H-Ras and tryptic digest MS; assay type: binding; conditions: 5 eq. probe, UV light, trypsin digest
T2 construct: Wild-type and mutant N-terminal His6-H-Ras (residues 1-166) in pProEx HTb expression vector; His6 (N, cleaved yes); made in house; host or cells: Escherichia coli (BL21)
Protocol: For each experiment, a sample of 250 μM diazirine-labeled CHD peptide was
Incubated samples were then photo-irradiated for 5 minutes at 24 °C. Photo-conjugated samples were then mixed with 1× SDS-PAGE loading buffer containing 5% 2-mercaptoethanol (200 μL final volume) and heated at 95° C. for 5 minutes. Heated samples were then separated via SDS-PAGE gel electrophoresis on a 1.0 mm 15% polyacrylamide gel. The resulting gel was stained with Coomassie Brilliant Dye and subsequently destained (40% MeOH/10% acetic acid/50% water).
In-gel tryptic digest was conducted with the In-Gel tryptic Digestion Kit (Thermo Scientific) according the manufacturer's instructions. Upon photoaffinity labeling, the conjugated band was isolated as a 1×1 mm segment for in-gel trypsin digest. The isolated gel band was then incubated with 200 μL of Coomassie destaining solution (25 mM ammonium bicarbonate in 1:1 ultrapure water:acetonitrile) for 30 minutes at 37 °C. After incubation, destaining buffer was removed, and the destaining step was repeated twice more. The destained gel band was treated with reducing buffer (25 mM of ammonium bicarbonate, 50 mM TCEP) for 10 minutes at 60° C. After discarding the reducing buffer, the band was treated with 200 μL of iodoacetamide alkylation solution (25 mM ammonium bicarbonate, 100 mM iodoacetamide) for 30 minutes at 37° C. while shaking in the dark. […]

CC[C@H](C)[C@H](NC(=O)[C@H](Cc1ccccc1)NC(C)=O)C(=O)NCC(=O)N[C@@H](CCCNC(=N)N)C(=O)N[C@@H](CC(C)C)C(=O)N[C@@H](CSCc1ccc(COCc2ccc(CSC[C@H](NC(=O)[C@H](CC(C)C)NC(=O)[C@H](CCCNC(=N)N)NC(=O)[C@H](C)NC(=O)[C@H](CC(C)C)NC(=O)[C@H](CCC(=O)O)NC(=O)[C@H](CCCNC(=N)N)NC(=O)[C@H](CCC(=O)O)NC(=O)[C@H](CC(C)C)NC(=O)[C@H](CCC(=O)O)NC(=O)[C@H](CCCNC(=N)N)NC(=O)[C@H](CC(C)C)NC(=O)[C@H](CCCNC(=N)N)NC(=O)[C@H](Cc3c[nH]c4ccccc34)NC(=O)[C@H](C)NC(=O)[C@H](CC(C)C)NC(C)=O)C(N)=O)cc2)cc1)C(=O)N[C@H](C(=O)N[C@@H](CC(N)=O)C(=O)N[C@H](C(=O)N[C@@H](CC(C)C)C(=O)N[C@@H](CCCCN)C(=O)N[C@@H](CC(C)C)C(=O)N[C@@H](CCCNC(=N)N)C(=O)N[C@@H](CCC(=O)O)C(=O)NCC(=O)N[C@@H](CC(N)=O)C(N)=O)[C@@H](C)CC)[C@@H](C)O [CHC^Sos-1] (HELM PEPTIDE1{[ac].F.I.G.R.L.C.T.N.I.L.K.L.R.E.G.N.[am]}|PEPTIDE2{[ac].L.A.W.R.L.R.E.L.E.R.E.L.A.R.L.C.[am]}|CHEM1{[c1cc(C[*:1])ccc1COCc1ccc(C[*:2])cc1]}$PEPTIDE1,CHEM1,7:R3-1:R1|PEPTIDE2,CHEM1,17:R3-1:R2$$$V2.0)
Kd [1]: 32 ± 6 µM

C#CCCC1(CCC(=O)NC)N=N1 [CP-266]
Average Abundance CP-266 ([2]; enriched protein AHSA1 (O95433)): 157
Average Abundance CP-266 ([2]; enriched protein EEF1D (P29692)): 614
Average Abundance CP-266 ([2]; enriched protein HNRNPR (O43390)): 1745
Average Abundance CP-266 ([2]; enriched protein PMVK (Q15126)): 177
Average Abundance CP-266 ([2]; enriched protein PPP4C (P60510)): 60
Average Abundance CP-266 ([2]; enriched protein STK26 (Q9P289)): 170

DZ1-CHC^Sos-5: CHD^Sos-5 with diazirine photocrosslinker at N-terminus of αI helix: DZ-GLAWRLRELERELARLC-NH2 (chain 1 WIGRLCTEI[hArg]RLRNGN; chain 2 {DZ}-GLAWRLRELERELARLC-NH2; linker I:6-II:17 via dibenzylether crosslinker)
Ras binding site by photo-crosslinking [3]: photo-crosslinked with the Ras hinge region
